Measured values from patent US9340590B2 (priority 2011, dated 2016).
Like-named read-outs stand apart in the source and are kept apart here. Positions of bridges follow the written chain, without caps; N, C: chain ends. Non-standard residues stand in square brackets, D forms with d. Residues, ends and D or L forms follow the SMILES beside them. Trp(1-Me) = Cn1cc(C[C@H](N)C(=O)O)c2ccccc21; Cit = NC(=O)NCCC[C@H](N)C(=O)O; Sar = CNCC(=O)O

Assays:
Experiment in all cases: cell-based
hNav1.3 = hNav1.3 (Homo sapiens, UniProt Q9NY46); settings: IonWorks Quattro, read-out: IWQ Use Nav1.3
hNav1.5 = hNav1.5 (Homo sapiens, UniProt Q14524); settings: IonWorks Quattro, read-out: IWQ Use Nav1.5
Sequence of hNav1.5 (Q14524 whole entry, looked up): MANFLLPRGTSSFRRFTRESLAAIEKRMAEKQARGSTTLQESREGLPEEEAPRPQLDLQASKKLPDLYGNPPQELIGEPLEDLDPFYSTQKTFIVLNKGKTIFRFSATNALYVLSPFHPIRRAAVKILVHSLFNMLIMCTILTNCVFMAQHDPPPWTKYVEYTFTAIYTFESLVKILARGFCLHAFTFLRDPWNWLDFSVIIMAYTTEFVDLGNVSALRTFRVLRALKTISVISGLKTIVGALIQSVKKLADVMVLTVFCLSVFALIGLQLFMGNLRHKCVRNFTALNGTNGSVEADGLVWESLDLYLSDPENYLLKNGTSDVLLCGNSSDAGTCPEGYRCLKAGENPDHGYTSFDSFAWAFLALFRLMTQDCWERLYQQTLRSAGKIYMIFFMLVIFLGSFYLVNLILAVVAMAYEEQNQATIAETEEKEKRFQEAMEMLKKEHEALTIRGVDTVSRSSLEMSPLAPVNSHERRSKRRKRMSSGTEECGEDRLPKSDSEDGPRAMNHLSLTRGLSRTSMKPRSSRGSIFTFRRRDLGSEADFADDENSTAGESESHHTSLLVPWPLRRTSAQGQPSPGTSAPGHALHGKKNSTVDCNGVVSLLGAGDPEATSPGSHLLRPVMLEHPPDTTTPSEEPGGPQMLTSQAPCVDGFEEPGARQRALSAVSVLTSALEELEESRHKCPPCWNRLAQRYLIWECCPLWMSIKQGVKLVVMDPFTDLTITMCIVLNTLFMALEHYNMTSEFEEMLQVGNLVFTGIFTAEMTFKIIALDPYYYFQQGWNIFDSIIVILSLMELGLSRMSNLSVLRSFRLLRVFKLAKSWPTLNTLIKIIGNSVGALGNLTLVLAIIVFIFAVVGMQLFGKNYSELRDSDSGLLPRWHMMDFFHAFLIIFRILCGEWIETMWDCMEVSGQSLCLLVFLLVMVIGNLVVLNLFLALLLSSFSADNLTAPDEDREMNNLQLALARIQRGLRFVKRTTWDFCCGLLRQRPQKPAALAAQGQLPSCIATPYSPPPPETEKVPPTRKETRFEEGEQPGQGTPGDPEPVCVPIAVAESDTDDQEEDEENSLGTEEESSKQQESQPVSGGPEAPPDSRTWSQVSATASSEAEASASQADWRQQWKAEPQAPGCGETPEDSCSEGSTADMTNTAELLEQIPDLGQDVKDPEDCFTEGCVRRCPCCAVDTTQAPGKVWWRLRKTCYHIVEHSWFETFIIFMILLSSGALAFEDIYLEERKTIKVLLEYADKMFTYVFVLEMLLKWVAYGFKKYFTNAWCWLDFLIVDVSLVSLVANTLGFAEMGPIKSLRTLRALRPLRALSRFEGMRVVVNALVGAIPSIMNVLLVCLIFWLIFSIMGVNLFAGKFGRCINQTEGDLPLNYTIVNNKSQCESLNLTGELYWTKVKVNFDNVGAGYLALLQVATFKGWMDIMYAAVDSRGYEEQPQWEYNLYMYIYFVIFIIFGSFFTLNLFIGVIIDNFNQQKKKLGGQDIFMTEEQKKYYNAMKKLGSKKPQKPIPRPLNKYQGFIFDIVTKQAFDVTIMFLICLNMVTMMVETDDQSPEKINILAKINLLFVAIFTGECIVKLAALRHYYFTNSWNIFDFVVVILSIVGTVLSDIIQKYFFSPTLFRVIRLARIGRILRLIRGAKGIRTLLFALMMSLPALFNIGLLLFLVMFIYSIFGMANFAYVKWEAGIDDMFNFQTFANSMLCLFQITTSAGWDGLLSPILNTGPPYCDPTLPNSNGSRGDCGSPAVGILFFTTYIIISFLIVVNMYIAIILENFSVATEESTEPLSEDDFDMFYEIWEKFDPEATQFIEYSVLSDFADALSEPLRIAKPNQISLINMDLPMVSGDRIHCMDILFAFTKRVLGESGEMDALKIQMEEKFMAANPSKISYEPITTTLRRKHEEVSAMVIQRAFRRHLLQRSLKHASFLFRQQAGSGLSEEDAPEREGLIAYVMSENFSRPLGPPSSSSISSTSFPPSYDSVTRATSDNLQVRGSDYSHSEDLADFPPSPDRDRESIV

hNav1.7 = hNav1.7 (Homo sapiens, UniProt Q15858); type: cell-based
Sequence of hNav1.7 (Q15858 whole entry, looked up): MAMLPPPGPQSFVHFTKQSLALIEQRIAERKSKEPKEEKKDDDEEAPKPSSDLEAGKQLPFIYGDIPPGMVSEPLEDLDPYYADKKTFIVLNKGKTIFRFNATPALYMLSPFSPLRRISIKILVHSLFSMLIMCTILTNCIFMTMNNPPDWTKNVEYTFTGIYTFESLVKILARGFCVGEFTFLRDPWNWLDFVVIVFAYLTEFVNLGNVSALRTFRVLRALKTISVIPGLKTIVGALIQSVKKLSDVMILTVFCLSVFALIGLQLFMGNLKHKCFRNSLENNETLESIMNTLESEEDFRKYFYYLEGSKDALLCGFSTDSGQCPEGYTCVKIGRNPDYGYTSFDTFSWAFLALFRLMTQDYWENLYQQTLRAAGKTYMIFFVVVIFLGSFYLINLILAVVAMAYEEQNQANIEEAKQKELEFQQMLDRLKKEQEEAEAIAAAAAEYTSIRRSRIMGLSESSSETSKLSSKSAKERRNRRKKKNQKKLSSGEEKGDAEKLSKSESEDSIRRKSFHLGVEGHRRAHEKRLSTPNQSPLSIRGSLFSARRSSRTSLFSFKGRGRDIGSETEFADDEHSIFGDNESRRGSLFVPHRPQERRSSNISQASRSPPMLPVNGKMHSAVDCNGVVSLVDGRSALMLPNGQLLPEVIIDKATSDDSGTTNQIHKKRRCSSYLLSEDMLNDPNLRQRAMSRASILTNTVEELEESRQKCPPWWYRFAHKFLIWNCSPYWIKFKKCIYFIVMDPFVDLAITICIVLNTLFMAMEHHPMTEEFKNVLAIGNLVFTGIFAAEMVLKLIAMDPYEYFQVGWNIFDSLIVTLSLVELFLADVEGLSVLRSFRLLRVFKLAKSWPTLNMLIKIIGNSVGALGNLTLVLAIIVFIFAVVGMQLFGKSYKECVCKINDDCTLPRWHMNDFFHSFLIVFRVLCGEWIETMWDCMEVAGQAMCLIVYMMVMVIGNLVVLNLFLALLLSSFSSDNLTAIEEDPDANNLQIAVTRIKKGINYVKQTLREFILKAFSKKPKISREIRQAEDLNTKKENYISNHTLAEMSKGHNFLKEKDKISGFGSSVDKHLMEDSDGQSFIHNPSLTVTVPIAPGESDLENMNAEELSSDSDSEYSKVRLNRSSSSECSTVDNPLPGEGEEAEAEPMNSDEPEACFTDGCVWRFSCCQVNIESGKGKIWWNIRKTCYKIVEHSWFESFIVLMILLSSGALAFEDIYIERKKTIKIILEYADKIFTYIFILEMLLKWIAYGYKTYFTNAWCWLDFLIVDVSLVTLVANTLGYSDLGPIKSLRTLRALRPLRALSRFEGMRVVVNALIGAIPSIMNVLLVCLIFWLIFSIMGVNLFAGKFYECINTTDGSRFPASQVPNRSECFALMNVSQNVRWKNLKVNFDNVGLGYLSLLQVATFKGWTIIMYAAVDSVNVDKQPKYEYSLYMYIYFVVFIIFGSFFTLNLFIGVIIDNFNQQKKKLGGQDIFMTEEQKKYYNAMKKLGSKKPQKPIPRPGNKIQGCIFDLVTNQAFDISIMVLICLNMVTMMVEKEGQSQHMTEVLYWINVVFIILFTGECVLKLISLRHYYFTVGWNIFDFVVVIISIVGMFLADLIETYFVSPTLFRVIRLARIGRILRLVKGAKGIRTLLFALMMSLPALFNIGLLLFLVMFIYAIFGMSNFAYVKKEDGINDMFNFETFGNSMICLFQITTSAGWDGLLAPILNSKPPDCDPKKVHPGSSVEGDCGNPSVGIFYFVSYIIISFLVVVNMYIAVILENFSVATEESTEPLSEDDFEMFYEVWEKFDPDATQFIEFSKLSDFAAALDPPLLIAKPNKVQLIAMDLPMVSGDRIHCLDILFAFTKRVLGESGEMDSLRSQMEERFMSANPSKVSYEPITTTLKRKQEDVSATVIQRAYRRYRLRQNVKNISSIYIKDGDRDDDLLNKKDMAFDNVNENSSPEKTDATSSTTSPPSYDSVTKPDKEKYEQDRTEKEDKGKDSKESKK

[1] = use-dependent protocol, hNav1.3
[2] = use-dependent protocol, hNav1.5
[3] = IonWorks Quattro, use-dependent protocol, hNav1.7, read-out: IWQ Use Nav1.7
[4] = IonWorks Quattro, use-dependent block, hNav1.7, read-out: IWQ Use Nav1.7

| SMILES | IC50 (hNav1.3; [1]) [nM] | IC50 (hNav1.5; [2]) [µM] | IC50 (hNav1.7; [3]) [nM] | IC50 (hNav1.3; use-dependent block, hNav1.3) [nM] | IC50 (hNav1.5; use-dependent block, hNav1.5) [µM] | IC50 (hNav1.7; [4]) [nM] | also measured |
| --- | --- | --- | --- | --- | --- | --- | --- |
| CC[C@H](C)[C@@H]1NC(=O)[C@@H]2CSSC[C@@H]3NC(=O)[C@H](C(C)C)NC(=O)[C@H](CC(C)C)NC(=O)[C@H](CC(N)=O)NC(=O)[C@@H]4CCCN4C(=O)[C@H](CCCNC(=N)N)NC(=O)[C@H](CSSC[C@H](NC(=O)[C@@H](N)CC(=O)O)C(=O)N[C@@H](CC(C)C)C(=O)NCC(=O)N(C)CC(=O)N[C@@H](Cc4ccccc4)C(=O)N[C@@H](CCCNC(=N)N)C(=O)N[C@@H](CCCCN)C(=O)N2)NC(=O)[C@H](CSSC[C@@H](C(=O)N[C@@H](CCCCN)C(=O)N[C@@H](Cc2ccc(O)cc2)C(=O)N[C@H](C(=O)N[C@@H](Cc2ccccc2)C(N)=O)C(C)C)NC(=O)[C@H](Cc2c[nH]c4ccccc24)NC(=O)[C@H](CCCCN)NC(=O)[C@H](Cc2c[nH]cn2)NC(=O)[C@H]([C@@H](C)O)NC(=O)[C@H](CCCNC(=N)N)NC(=O)[C@H](CO)NC3=O)NC(=O)[C@H](CCCCN)NC(=O)[C@H](CC(=O)O)NC(=O)[C@H](CC(N)=O)NC(=O)[C@H](CC(=O)O)NC(=O)[C@@H]2CCCN2C1=O [compound 632] (H-DCLG[Sar]FRKCIPDNDKCCRPNLVCSRTHKWCKYVF-NH2; disulfide 2-17, 9-23, 16-30) | 450 | 10.5 | 680 |  |  |  |  |
| CC[C@H](C)[C@@H]1NC(=O)[C@@H]2CSSC[C@@H]3NC(=O)[C@H](C(C)C)NC(=O)[C@H](CC(C)C)NC(=O)[C@H](CC(N)=O)NC(=O)[C@@H]4CCCN4C(=O)[C@H](CCCNC(=N)N)NC(=O)[C@H](CSSC[C@H](NC(=O)[C@@H](N)CC(=O)O)C(=O)N[C@@H](CC(C)C)C(=O)NCC(=O)N[C@@H](C)C(=O)N[C@@H](CCSC)C(=O)N[C@@H](CCCNC(=N)N)C(=O)N[C@@H](CCCCN)C(=O)N2)NC(=O)[C@H](CSSC[C@@H](C(=O)N[C@@H](CCCCN)C(=O)N[C@@H](Cc2ccc(O)cc2)C(=O)N[C@H](C(=O)N[C@@H](Cc2ccccc2)C(N)=O)C(C)C)NC(=O)[C@H](Cc2c[nH]c4ccccc24)NC(=O)[C@H](CCCNC(N)=O)NC(=O)[C@H](Cc2c[nH]cn2)NC(=O)[C@H]([C@@H](C)O)NC(=O)[C@H](CCCNC(=N)N)NC(=O)[C@H](CO)NC3=O)NC(=O)[C@H](CCCCN)NC(=O)[C@H](CC(=O)O)NC(=O)[C@H](CC(N)=O)NC(=O)[C@H](CC(=O)O)NC(=O)[C@@H]2CCCN2C1=O [compound 748] (H-DCLGAMRKCIPDNDKCCRPNLVCSRTH[Cit]WCKYVF-NH2; disulfide 2-17, 9-23, 16-30) |  |  |  | 2700 | 24.2 | 870 |  |
| CC[C@H](C)[C@@H]1NC(=O)[C@@H]2CSSC[C@@H]3NC(=O)[C@H](C(C)C)NC(=O)[C@H](CC(C)C)NC(=O)[C@H](CC(N)=O)NC(=O)[C@@H]4CCCN4C(=O)[C@H](CCCNC(=N)N)NC(=O)[C@H](CSSC[C@H](NC(=O)[C@@H](N)CC(=O)O)C(=O)N[C@@H](CC(C)C)C(=O)NCC(=O)N[C@@H](C)C(=O)N[C@@H](Cc4ccccc4)C(=O)N[C@@H](CCCNC(=N)N)C(=O)N[C@@H](CCCCN)C(=O)N2)NC(=O)[C@H](CSSC[C@@H](C(=O)N[C@@H](CCCCN)C(=O)N[C@@H](Cc2ccc(O)cc2)C(=O)N[C@H](C(=O)N[C@@H](Cc2ccccc2)C(N)=O)C(C)C)NC(=O)[C@H](Cc2c[nH]c4ccccc24)NC(=O)[C@H](CCCCN)NC(=O)[C@H](Cc2c[nH]cn2)NC(=O)[C@H]([C@@H](C)O)NC(=O)[C@H](C)NC(=O)[C@H](CO)NC3=O)NC(=O)[C@H](CCCCN)NC(=O)[C@H](CC(=O)O)NC(=O)[C@H](CC(N)=O)NC(=O)[C@H](CC(=O)O)NC(=O)[C@@H]2CCCN2C1=O [compound 732] (H-DCLGAFRKCIPDNDKCCRPNLVCSATHKWCKYVF-NH2; disulfide 2-17, 9-23, 16-30) |  |  |  | 600 | > 50 | 290 |  |
| CC[C@H](C)[C@@H]1NC(=O)[C@@H]2CSSC[C@@H]3NC(=O)[C@H](C(C)C)NC(=O)[C@H](CC(C)C)NC(=O)[C@H](CC(N)=O)NC(=O)[C@@H]4CCCN4C(=O)[C@H](CCCNC(=N)N)NC(=O)[C@H](CSSC[C@H](NC(=O)[C@@H](N)CC(=O)O)C(=O)N[C@@H](CC(C)C)C(=O)NCC(=O)N[C@@H](C)C(=O)N[C@@H](CCSC)C(=O)N[C@@H](CCCNC(=N)N)C(=O)N[C@@H](CCCCN)C(=O)N2)NC(=O)[C@H](CSSC[C@@H](C(=O)N[C@@H](CCCCN)C(=O)N[C@@H](Cc2cn(C)c4ccccc24)C(=O)N[C@H](C(=O)N[C@@H](Cc2ccccc2)C(N)=O)C(C)C)NC(=O)[C@H](Cc2c[nH]c4ccccc24)NC(=O)[C@H](CCCCN)NC(=O)[C@H](Cc2c[nH]cn2)NC(=O)[C@H]([C@@H](C)O)NC(=O)[C@H](CCCNC(=N)N)NC(=O)[C@H](CO)NC3=O)NC(=O)[C@H](CCCCN)NC(=O)[C@H](CC(=O)O)NC(=O)[C@H](CC(N)=O)NC(=O)[C@H](CC(=O)O)NC(=O)[C@@H]2CCCN2C1=O [compound 692] (H-DCLGAMRKCIPDNDKCCRPNLVCSRTHKWCK[Trp(1-Me)]VF-NH2; disulfide 2-17, 9-23, 16-30) | 630 | > 5 | 180 |  |  |  |  |
| CC[C@H](C)[C@@H]1NC(=O)[C@@H]2CSSC[C@@H]3NC(=O)[C@H](C(C)C)NC(=O)[C@H](CC(C)C)NC(=O)[C@H](CC(N)=O)NC(=O)[C@@H]4CCCN4C(=O)[C@H](CCCNC(=N)N)NC(=O)[C@H](CSSC[C@H](NC(=O)[C@@H](N)CC(=O)O)C(=O)N[C@@H](CC(C)C)C(=O)NCC(=O)N[C@@H](Cc4ccccc4)C(=O)N[C@@H](CCSC)C(=O)N[C@@H](CCCNC(=N)N)C(=O)N[C@@H](CCCCN)C(=O)N2)NC(=O)[C@H](CSSC[C@@H](C(=O)N[C@@H](CCCCN)C(=O)N[C@@H](Cc2ccc(O)cc2)C(=O)N[C@H](C(=O)N[C@@H](Cc2ccccc2)C(N)=O)C(C)C)NC(=O)[C@H](Cc2c[nH]c4ccccc24)NC(=O)[C@H](CCCCN)NC(=O)[C@H](Cc2cnc[nH]2)NC(=O)[C@H](CCCCN)NC(=O)[C@H](CCCNC(=N)N)NC(=O)[C@H](CO)NC3=O)NC(=O)[C@H](CCCCN)NC(=O)[C@H](CC(=O)O)NC(=O)[C@H](CC(N)=O)NC(=O)[C@H](CC(=O)O)NC(=O)[C@@H]2CCCN2C1=O [compound 54] (H-DCLGFMRKCIPDNDKCCRPNLVCSRKHKWCKYVF-NH2; disulfide 2-17, 9-23, 16-30) |  |  |  |  |  |  | IC50 (hNav1.3; Table 22, use, […]): 20 nM; IC50 (hNav1.5; Table 22, use, […]): 7.96 µM; IC50 (hNav1.7; Table 22, IonWorks Quattro, use, […], read-out: IWQ Use Nav1.7): 50 nM |
| CC[C@H](C)[C@@H]1NC(=O)[C@@H]2CSSC[C@@H]3NC(=O)[C@H](C(C)C)NC(=O)[C@H](CC(C)C)NC(=O)[C@H](CC(N)=O)NC(=O)[C@@H]4CCCN4C(=O)[C@H](CCCNC(=N)N)NC(=O)[C@H](CSSC[C@H](NC(=O)[C@@H](N)CC(=O)O)C(=O)N[C@@H](CC(C)C)C(=O)NCC(=O)N[C@@H](Cc4ccccc4)C(=O)N[C@@H](CCSC)C(=O)N[C@@H](CCCNC(=N)N)C(=O)N[C@@H](CCCCN)C(=O)N2)NC(=O)[C@H](CSSC[C@@H](C(=O)N[C@@H](CCCCN)C(=O)N[C@@H](Cc2ccc(O)cc2)C(=O)N[C@H](C(=O)N[C@@H](CCCNC(=N)N)C(N)=O)C(C)C)NC(=O)[C@H](Cc2c[nH]c4ccccc24)NC(=O)[C@H](CCCCN)NC(=O)[C@H](Cc2cnc[nH]2)NC(=O)[C@H]([C@@H](C)O)NC(=O)[C@H](CCCNC(=N)N)NC(=O)[C@H](CO)NC3=O)NC(=O)[C@H](CCCCN)NC(=O)[C@H](CC(=O)O)NC(=O)[C@H](CC(N)=O)NC(=O)[C@H](CC(=O)O)NC(=O)[C@@H]2CCCN2C1=O [compound 75] (H-DCLGFMRKCIPDNDKCCRPNLVCSRTHKWCKYVR-NH2; disulfide 2-17, 9-23, 16-30) |  |  |  |  |  |  | IC50 (hNav1.3; use-dependent, […]): 4690 nM; IC50 (hNav1.5; use-dependent, […]): 8.99 µM; IC50 (hNav1.7): 3580 nM |
